Laboratory results as given in ChEMBL document CHEMBL2169752, “Kallikrein protease activated receptor (PAR) axis: an attractive target for drug development” (J Med Chem, 2012).
Numbered stars: 1 amine (or outer) side, 2 acyl side, 3 side chain; on linkers, the order of the positions; unused ones are H or OH. Square brackets hold non-standard residues; d marks the D form. Peptide text beside a SMILES is read from it. * marks the point of attachment. EDDnp = O=[N+]([O-])c1ccc(NCCN*)c([N+](=O)[O-])c1; X1 = NCC1CCC(C[C@H](N[*:1])C(=O)[*:2])CC1; 2Abz = Nc1ccccc1C(=O)O

What was measured:
Kallikrein-1 [1] = molecular target: T1, Kallikrein-1 (Homo sapiens, UniProt P06870); assay: Inhibition of human KLK1
T1 sequence (P06870 whole entry): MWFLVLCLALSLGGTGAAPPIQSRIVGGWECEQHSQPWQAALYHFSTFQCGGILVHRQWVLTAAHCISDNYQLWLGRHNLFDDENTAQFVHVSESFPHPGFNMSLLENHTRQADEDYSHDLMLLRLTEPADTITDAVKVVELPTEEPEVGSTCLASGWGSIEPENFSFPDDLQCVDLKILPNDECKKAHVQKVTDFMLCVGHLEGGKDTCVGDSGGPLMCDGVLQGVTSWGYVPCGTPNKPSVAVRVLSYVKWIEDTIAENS

[2] = molecular target: T2, Prostate-specific antigen (Homo sapiens, UniProt P07288); assay: Inhibition of KLK3
T2 sequence (P07288 whole entry): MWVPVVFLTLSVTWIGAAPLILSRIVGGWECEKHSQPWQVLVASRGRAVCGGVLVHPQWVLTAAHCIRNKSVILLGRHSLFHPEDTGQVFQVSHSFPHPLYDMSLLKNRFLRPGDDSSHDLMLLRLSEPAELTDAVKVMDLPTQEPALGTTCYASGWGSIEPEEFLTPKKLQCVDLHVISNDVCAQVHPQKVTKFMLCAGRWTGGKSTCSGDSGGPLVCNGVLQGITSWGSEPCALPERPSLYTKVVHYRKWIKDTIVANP

Kallikrein-1 [3] = molecular target: T1, Kallikrein-1; assay: Inhibition of human KLK1 using Pro-Phe-Arg-MCA as substrate for 2 mins by spectrophotometric analysis

Row | Ki (Kallikrein-1 [1]) [µM] | Ki [2] [µM] | further results | Structure (SMILES)
1 | 0.05 | – | – | N=C(N)NCCC[C@H](NC(=O)[C@H](CO)NC(=O)[C@H](CC1CCC(CN)CC1)NC(=O)[C@H](Cc1ccccc1)NC(=O)c1ccccc1N)C(=O)N[C@@H](CCC(N)=O)C(=O)NCCNc1ccc([N+](=O)[O-])cc1[N+](=O)[O-] (stereo not given in full) (H-[2Abz]F[X1]SRQ-EDDnp)
2 | – | 0.3 | – | Cc1c(-c2nc3ccccc3c(=O)o2)cccc1[N+](=O)[O-]
3 | – | 0.5 | – | COc1ccc(C(=O)n2nc(-c3cccnc3)nc2C)cc1OC
4 | – | – | Ki (Kallikrein-1 [3]): 0.008 µM | CC(=O)N[C@H](CCCCN)C(=O)N[C@@H](Cc1ccccc1)C(=O)N[C@@H](Cc1ccccc1)C(=O)N1CCC[C@H]1C(=O)N[C@@H](CC(C)C)C(=O)N[C@@H](CCC(=O)O)C(N)=O
5 | 0.11 | – | – | NC(=O)[C@H](CCCN=C(N)N)NC(=O)[C@H](CO)NC(=O)[C@H](CC1CCC(N)CC1)NC(=O)Cc1ccccc1 (mixture of isomers)
